Reference: publication PMC7183711, “Co-production of gallic acid and a novel cell-associated tannase by a pigment-producing yeast, Sporidiobolus ruineniae A45.2” (Microbial Cell Factories, 2020)

Tested on: T1, purified tannase (PT); cell-associated tannase (CAT) of Sporidiobolus ruineniae A45.2
T1 construct: gene tannin acyl hydrolase; native enzyme released from cell wall with Triton X-100, Q-Sepharose purified
Assay: rhodanine assay of released gallic acid, A520; Michaelis-Menten fit
Assay type: biochemical, Rhodosporidiobolus ruineniae
Settings: 100 mM sodium phosphate pH 6.5, 30 °C, 10 min; 0.25-12.5 mM methyl gallate; purified free enzyme

## COC(=O)c1cc(O)c(O)c(O)c1 [methyl gallate]
  Km: 2600 ± 400 µM
